What was measured:
[1] = tested on: neutral lipids in and on the Bruch's membrane; assay: Oil red O (ORO) staining of neutral lipids in Bruch's membrane, macaque study; assay type: in vivo, Macaca fascicularis; details: eyes injected with L-4F vs eyes injected with placebo (scrambled L-4F); 6 monthly intravitreal injections, total 625 μg; after 6 months
Procedure: (§1) The macaque study was conducted according to accepted guidelines.
For staining with oil red O (ORO), specimens were treated with a 0.3% oil red O (Sigma-Aldrich Biochemie GmbH, Hamburg, Germany) solution (in 99% isopropanol) for 30 min at room temperature (RT), followed by immersion in a 60% isopropanol solution for 12 min. After the specimens were washed with deionized water for 3 min, counter-staining was conducted with hematoxylin (Carl Roth GmbH, Karlsruhe, Germany). The specimens were then mounted with mounting solution (Aquatex from Merck Millipore, Darmstadt, Germany), covered with a glass cover slip (Menzel-Graeser GmbH), and examined using a fully automated inverted light microscope for life science (DMI 6000 from Leica Microsystems Wetzlar, Germany). Image analysis was performed by grading the intensity of ORO staining (red color) of the Bruch's membrane (BrM) with scores ranging from 0 to 4, according to a qualitative evaluation assessed in four different regions in two separate slices from each eye (a total of 8 different regions from each eye). Qualitative ORO staining scores at the BrM and the choroid: 0=no staining; 1=+; 2=++; 3=+++; 4=++++.

Bruch's membrane = Bruch's membrane thickness at the temporal outer macula by electron microscopy, macaque study; assay type: in vivo, Macaca fascicularis
Procedure: as §1
Lipid deposition in the Bruch's membrane contributes to thickening of the BrM. Bruch's membrane thickness was measured at the temporal outer macula of enucleated eyes examined by electron microscopy post-mortem.

[2] = tested on: complement factor D (CFD); assay: Immunohistochemistry of complement factor D, macaque study; assay type: in vivo, Macaca fascicularis; details: eyes injected with L-4F vs eyes injected with the scrambled peptide; 6 monthly intravitreal injections
Procedure: as §1
(§2) Assays for immunohistochemistry of the membrane attack complex (MAC, C5b-9) and complement factor D (CFD) were performed identically except for employment of monoclonal antibodies specific for each complement component. Specimens were treated with 10 μg/mL protease K (Sigma-Aldrich Biochemie GmbH, Hamburg, Germany) in PBS for antigen retrieval for 30 min at RT. Subsequently the sections were blocked with a solution of goat serum (5% goat serum, 0.3% Triton X-100 in PBS) for 60 min at RT. The specimens were then reacted with a first antibody against either C5b-9 (diluted 1:30 in PBS, mouse monoclonal antibody, Dako Deutschland GmbH, Hamburg, Germany) or complement factor D (diluted 1:200 in PBS, mouse monoclonal antibody, Santa Cruz Biotechnology, Dallas, Tex., USA) overnight at 4° C. […] Fluorescence microscopy was conducted using an inverted fluorescence microscope (DMI 6000 from Leica Microsystems, Wetzlar, Germany) and a filter set for λex/λem=470 nm/525 nm. For the semiquantitative analysis of fluorescence intensity of C5b-9, 3-5 different regions in one slide were analyzed for 3 different slides from each eye (a total of 9-15 different regions from each eye). For the semiquantitative analysis of fluorescence intensity of complement factor D, 3 distinct regions for each eye were evaluated.

[3] = tested on: membrane attack complex (MAC, C5b-9); assay: Immunohistochemistry of membrane attack complex, macaque study; assay type: in vivo, Macaca fascicularis; details: eyes injected with L-4F vs eyes injected with the scrambled peptide; 6 monthly intravitreal injections
Procedure: as §1, §2

[4] = tested on: esterified cholesterol in the Bruch's membrane; assay: Filipin staining of esterified cholesterol in Bruch's membrane, macaque study; assay type: in vivo, Macaca fascicularis; details: eyes injected with L-4F vs placebo-injected eyes; 6 monthly intravitreal injections
Procedure: as §1
For staining with filipin, specimens were washed once with deionized water for 5 min and then treated with 70% ethanol for 45 min. After being washed with deionized water for 5 min, the specimens were treated with cholesterol esterase (8.12 units/mL) diluted in 0.1 M potassium phosphate buffer (PPB, pH 7.4) for 3.5 hr at 37° C. The specimens were then washed sequentially with PPB and with phosphate buffered saline (PBS) twice for 3 min, followed by a wash with cold (4° C.) PBS overnight. Filipin staining was then performed with 250 μg/mL filipin (Sigma-Aldrich Biochemie GmbH, Hamburg, Germany), diluted in N,N-dimethylformamide (Merck Millipore, Darmstadt, Germany), for 60 min at RT with light shielding. The specimens were then washed sequentially with PBS and deionized water, mounted with a mounting solution (Mowiol®, Carl Roth GmbH, Karlsruhe, Germany), covered with a glass cover slip, and examined using an inverted fluorescence microscope (DMI 6000 from Leica Microsystems, Wetzlar, Germany). Filipin fluorescence was observed using a UV filter set (λex/λem=350 nm/455 nm). […] Semiquantitative analysis of fluorescence intensity of filipin at three separate regions of the BrM was done on three different slides from the same eye (a total of 9 different regions from each eye).

[5] = tested on: high-sensitivity C-reactive protein (hsCRP); details: cynomolgus monkey, in vivo
Procedure: The macaque study was conducted according to accepted guidelines. […] One eye per animal received 6 monthly injections of the same escalating dosages of L-4F or scrambled L-4F (total of 625 μg) in a 50 μL volume. The second eye per animal was not injected and was just observed.
Clinical laboratory tests including serology, hemograms and liver enzymes were conducted, and ophthalmic examinations were also performed, including fundus photographs, optical coherence tomography (OCT), intraocular pressure testing and blood sampling. After 7 months, all animals were sacrificed and eyes were immediately prepared for histology.
Circulating hsCRP, which is mainly produced in the liver, is a non-specific marker for systemic inflammation.

[6] = tested on: geriatric macaques with naturally occurring age-related maculopathy; assay: Macaque study of age-related maculopathy: fellow-eye effects and tolerability; assay type: in vivo; details: 6 monthly intravitreal injections, all macaques
Procedure: as §1

[7] = in vivo; cited from earlier work
geographic atrophy = details: monthly intravitreal injections of 10 mg for 18 months, cited from earlier work

Ac-DWFKAFYDKVAEKFKEAF-NH2 [L-4F, Ac-DWFKAFYDKVAEKFKEAF-NH2 acetate salt (SEQ. ID. NO. 13)]
reduction of lipid deposits from the BrM (oil red O staining) [1]: about 56%
reduction of BrM thickness (Bruch's membrane; eyes injected with L-4F vs eyes injected with placebo): about 24%
BrM thickness at the temporal outer macula (Bruch's membrane; injected eyes, electron microscopy post-mortem, mean ± SE): 1.31 μm
decreased level of complement factor D (fluorescence intensity, semiquantitative) [2]: about 41%
decreased level of MAC (C5b-9) in the BrM and the choriocapillaris (fluorescence intensity, semiquantitative) [3]: about 58%
reduction of esterified cholesterol in the BrM (filipin fluorescence, semiquantitative) [4]: about 68%
blood level of hsCRP [5]: did not increase
tolerability (significant adverse event or side effect) [6]: well tolerated

aflibercept: soluble fusion protein containing one or more extracellular domains of one or more VEGFRs; anti-VEGF agent
intravitreal half-life [7]: about 9.0 days

bevacizumab: anti-VEGF antibody or fragment thereof
intravitreal half-life [7]: about 9.8 days

lampalizumab: antigen-binding fragment (Fab) of a humanized monoclonal antibody targeting complement factor D (CFD)
reduction in the area of geographic atrophy in the injected eye (geographic atrophy; fundus autofluorescence, vs placebo): about 20%
reduction in the area of geographic atrophy, subgroup positive for the CFI biomarker (geographic atrophy): about 44%

ranibizumab: anti-VEGF antibody or fragment thereof
intravitreal half-life [7]: about 7.1 days

Reference: US10426817B2, “Treatment of age-related macular degeneration and other eye diseases with apolipoprotein mimetics” (MacRegen, Inc., priority 2017, dated 2019)
